Laboratory results as given in patent publication US20120316183A1, “NOVEL SOLVATES OF METHYLCARBAMATE” (Bayer Intellecutal Property GmbH, priority 2009, published 2012).

Experiment: processability of the solid form (grinding / micronization, flowability, sievability)
Type: physicochemical

flowability and sievability (compared to modification I of the compound of the formula (I)) | grindability (micronization step) | Structure (SMILES) | fineness and tail of coarse material in the micronisate (compared to modification I, micronisate)
better flowability and sievability | – | COC(=O)Nc1c(N)nc(-c2nn(Cc3ccccc3F)c3ncccc23)nc1N [semi-ethanol solvate of the formula (Ia), semi-ethanol solvate of methyl {4,6-diamino-2-[1-(2-fluorobenzyl)-1H-Pyrazolo[3,4-b]pyridin-3-yl]pyrimidin-5-yl}carbamate] | higher fine-ness and a reduced tail of coarse material
– | difficult to grind | COC(=O)Nc1c(N)nc(-c2nn(Cc3ccccc3F)c3ncccc23)nc1N [modification I, methyl {4,6-diamino-2-[1-(2-fluorobenzyl)-1H-pyrazolo[3,4-b]pyridin-3-yl]pyrimidin-5-yl}carbamate] | –
